Data taken from patent US11998600B2, “Enhancing the therapeutic activity of an immune checkpoint inhibitor” (MaineHealth, priority 2015, dated 2024).

Experiments:
Assay type in all cases: cell-based, human
P38MAPK = P38MAPK phosphorylation in HRMVEC attached to collagen peptides, Western blot; conditions: cells attached to immobilized peptide; FIG. 6E
Experimental: (§1) Endothelial cells (HUVECs or HRMVECs) were incubated in serum free media with 1 mM MgCl2, 0.2 mM MnCl2 in the presence of a Src inhibitor, PP2, (10 μM) a P38MAPK inhibitor, SB202190 (10 μM) or vehicle only (DMSO) for 10 min at 37° C. Treated cells were then seeded on to immobilized P-1 and P-2 and lysates were collected at 15 min.
Whole cell and CAM tissue lysates were collected in RIPA buffer supplemented with 1× protease inhibitor and 1× phosphatase inhibitor and were run on polyacrylamide gels using denaturing conditions. Prior to loading the gels, 6× sample buffer was added to each of the lysates (final concentration 1×) and boiled for five minutes. Twenty to 50 μg of total protein were loaded into each lane. […] Gels were run at 60 volts (v) until the dye front passed through the stacking gel, and then the voltage was increased to 100V for the remainder of the separation. Precision Plus protein standards (Bio-Rad) were used to visualize migration. Protein was transferred to nitrocellulose membranes using a wet tank system and blocked for 1 h using 10% non-fat dried milk in tris-buffered saline with 0.01% Tween-20 (TBS-T). […] Membranes were washed 3 times in TBS-T for five minutes. Blots were then incubated with HRP conjugated secondary antibodies (1:15000) in 1% non-fat milk in TBS-T for 1 h. […] Western blot bands were quantified using Image J software based on pixel intensity.

β3-integrin = β3-integrin phosphorylation in endothelial cells attached to collagen peptides, Western blot; conditions: HUVEC, absence of growth factors; FIG. 7C
Experimental: as §1
Whole cell and CAM tissue lysates were collected in RIPA buffer supplemented with 1× protease inhibitor and 1× phosphatase inhibitor and were run on polyacrylamide gels using denaturing conditions. Prior to loading the gels, 6× sample buffer was added to each of the lysates (final concentration 1×) and boiled for five minutes. Twenty to 50 μg of total protein were loaded into each lane. For detection of proteins larger than 50 kD, 10% gels were used; for proteins smaller than 50 kD 15% gels were used. […] Western blot bands were quantified using Image J software based on pixel intensity.
(§2) Because both RGD containing peptides bind αvβ3 coupled with the differential effect of these peptides on angiogenesis and inflammation, it was determined whether the RGD peptides differentially altered αvβ3-mediated signaling. […] Therefore, the differential phosphorylation of these protein kinases following the early mechanical-mediated interactions with the RGD containing collagen peptides was assessed. […]

[1] = tested on: endothelial cells (HUVECs); experiment: Actin stress fiber formation in HUVECs attached to collagen peptides (F-actin stain); conditions: FIG. 7G
Experimental: CAMs examined for accumulation of granulation tissue were harvested, fixed in 4% PFA and paraffin embedded and sectioned (4 μm) and stained with Giemsa. CAM tissues analyzed via immunofluorescence were harvested, embedded with OCT, snap frozen and sectioned ([…]). Frozen sections were fixed in 50% methanol/50% acetone, air dried and blocked with 2.5% BSA for 1 h at 37° C. For expression of the XL313 and XL166 epitopes as well as monocyte/macrophages, FGF-2 stimulated CAM tissues were stained with Mabs XL313, XL166 (50 μg/ml) or KUL1 (1:250) and then incubated with Alexa-488 labeled secondary antibodies (1:2000 dilution). […] Using a similar strategy, sections of RGD peptide-treated CAM tissues were analyzed for phosphorylated-P38MAPK in angiogenic vessels by co-incubation of anti-phospho-P38MAPK (1:50) and anti-vWf (1:500) antibodies. […]
as §2

Sequence: QGPRGDKGE [Mab P-2]
- phosphorylation of P38MAPK in HRMVEC, P-2 as compared to P-1 (P38MAPK): enhanced phosphorylation of P38MAPK
- increase of β3 phosphorylation, P-2 as compared to P-1 (β3-integrin): over 3 fold
- actin stress fiber formation, P-2 as compared to P-1 [1]: accelerated actin stress fiber formation
